Test system: tissue between the subcutaneous fascia of the rat back
Conditions: in vivo, sc
Method: Six rats (Wistar/ST female) were anesthetized by intraperitoneal administration of pentobarbital and inhalation of isoflurane, and each of the solutions (physiological saline and a 2% aqueous solution of low-endotoxin sodium alginate AL2) was individually injected (implanted) in an amount of 1 ml into the tissue between the subcutaneous fascia at a subcutaneous depth of about 1 cm at each of eight sites from the upper back to the lower back, using 1-ml syringe and a 23 G needle. The injection of each solution was performed after randomization. Each needle entry site was sutured with one stitch of 5-0 proline thread.
After 3 weeks, each rat was sacrificed by pentobarbital overdose, and the back implantation sites were cut out and immersion-fixed in a 10% formaldehyde solution. The fixed tissues were subjected to hematoxylin-eosin staining (HE staining) and safranin-O staining (SOFG staining) according to usual methods.
After 12 weeks, HE staining and SOFG staining were performed in the same manner as in Example 1.
Rats in which implantation was performed in the same manner as in Example 4 were subjected to MTC staining, and type I collagen staining in addition to HE staining and SOFG staining. […] MTC staining and type I collagen staining were performed according to usual methods. […]

Substance: collagen
- retention / residual implanted material at injection site: present in an amorphous state at the injection sites

— patent US20240408129A1, “TISSUE FORMATION AGENT” (NATIONAL UNIVERSITY CORPORATION SHIGA UNIVERSITY OF MEDICAL …, priority 2021, published 2024)
